Molecules are shown by their SMILES. pEC50: −log10 of the molar value.

The test system of one test is secreted mouse PGRN. Description: progranulin induction cellular assay (PGRN assay, ELISA-based readout). The note with it: Mus musculus, progranulin secreted into cell culture medium, cells named in method: mouse primary microglia, primary cortical neurons, BV-2. As for the experimental part: Cellular Assays: To measure the efficacy of compounds, a progranulin induction cellular assay in mouse primary microglia (pMG), primary cortical neurons, and BV-2 cell lines is used. BV-2 cells are split the day before plating into a 96well plate format at approximately 80%. Cells should be plated the day before and allowed for 1 hour attachment period and for 16 hour incubation. Levels of progranulin secreted into the cell culture medium or retained in the cell lysate can be quantified using an ELISA-based readout and measurement of secreted mouse PGRN in the medium was assessed by the methodology published by Ghidoni et al. 2012. Standard ELISA kits to measure PGRN are available from vendors such as Adipogen, R&D, and Biovendor.
Table D below presents the results of a PGRN assay as described above.
(In general: An ELISA detects its analyte on a solid surface through an enzyme-linked reagent.)
What is called pEC50 is the negative decadic logarithm of the EC50, by convention in mol/L. A lower pEC50 goes with a high EC50. `Fc1ccc([C@H]2c3ccccc3CCN2C2=NC[C@H](C34CCN(CC3)CC4)O2)cc1` [Compound 3047, 2-((S)-1-(4-fluorophenyl)-3,4-dihydroisoquinolin-2(1H)-yl)-5-(quinuclidin-4-yl)-4,5-dihydrooxazole] gave a pEC50 of less than 5.00.

On to `Fc1ccc([C@H]2c3ccccc3CCN2C2=NC[C@@H](C34CCN(CC3)CC4)O2)cc1` [Compound 3048, 2-((S)-1-(4-fluorophenyl)-3,4-dihydroisoquinolin-2(1H)-yl)-5-(quinuclidin-4-yl)-4,5-dihydrooxazole], for which the negative-log EC50 (pEC50) was 6.96. In turn, `Fc1ccc([C@H]2c3ccccc3CCN2C2=NC[C@@]3(CCNC3)O2)cc1` [Compound 3049] had a pEC50 of 7.72. Compared with the last compound, the pEC50 is 0.76 log units higher.

`Fc1ccc([C@H]2c3ccccc3CCN2C2=NC[C@@]3(CCCNC3)O2)cc1` [Compound 3051] showed a pEC50 of 6.01. Regarding `Fc1ccc([C@H]2c3ccccc3CCN2C2=NC[C@]3(CCCNC3)O2)cc1` [Compound 3052], the pEC50 was 6.36. On the same count and under the same terms, then `CN1CCCC2(COC(N3CCc4ccccc4[C@@H]3c3ccc(F)cc3)=N2)C1` (stereo partly shown) [Compound 3055], with 5.75.

As for `Fc1ccc([C@H]2c3ccccc3CCN2C2=NC3(CCNCC3)CO2)cc1` [Compound 3056, (S)-2-(1-(4-fluorophenyl)-3,4-dihydroisoquinolin-2(1H)-yl)-3-oxa-1,8-diazaspiro[4.5]dec-1-ene], the negative logarithm of the EC50 (pEC50) is 6.96. Still for that read-out and setting: then `CN1CCC2(CC1)COC(N1CCc3ccccc3[C@@H]1c1ccc(F)cc1)=N2` [Compound 3058, (S)-2-(1-(4-fluorophenyl)-3,4-dihydroisoquinolin-2(1H)-yl)-8-methyl-3-oxa-1,8-diazaspiro[4.5]dec-1-ene], with 6.42; and `CN1CCC2(CC1)CN=C(N1CCc3ccccc3[C@@H]1c1ccc(F)cc1)O2` [Compound 3059, (S)-2-(1-(4-fluorophenyl)-3,4-dihydroisoquinolin-2(1H)-yl)-8-methyl-1-oxa-3,8-diazaspiro[4.5]dec-2-ene], with 6.96; and `Fc1ccc([C@H]2c3ccccc3CCN2C2=NCC3(CCNCC3)O2)cc1` [Compound 3060, (S)-2-(1-(4-fluorophenyl)-3,4-dihydroisoquinolin-2(1H)-yl)-1-oxa-3,8-diazaspiro[4.5]dec-2-ene], with 6.96. With `N[C@H]1C[C@@]2(CN=C(N3CCc4ccccc4[C@@H]3c3ccc(F)cc3)O2)C1` [Compound 3061, (S)-6-(1-(4-fluorophenyl)-3,4-dihydroisoquinolin-2(1H)-yl)-5-oxa-7-azaspiro[3.4]oct-6-en-2-amine], the pEC50 is 6.94. Compound `Fc1ccc([C@H]2c3ccccc3CCN2C2=NC[C@@H](C3CCNCC3)O2)cc1` [Compound 3067] gave a pEC50 of 6.51. On the same count and under the same terms, the value for `N[C@@H]1CC[C@@]2(COC(N3CCc4ccccc4[C@@H]3c3ccc(F)cc3)=N2)C1` [Compound 3082, (5S,7R)-2-((S)-1-(4-fluorophenyl)-3,4-dihydroisoquinolin-2(1H)-yl)-3-oxa-1-azaspiro[4.4]non-1-en-7-amine] was 6.80. In turn, `N[C@H]1CC[C@@]2(COC(N3CCc4ccccc4[C@@H]3c3ccc(F)cc3)=N2)C1` [Compound 3084, (5S,7S)-2-((S)-1-(4-fluorophenyl)-3,4-dihydroisoquinolin-2(1H)-yl)-3-oxa-1-azaspiro[4.4]non-1-en-7-amine] gave a pEC50 of 6.69.

Take `O=C1N[C@]2(CCCNC2)N=C1N1CCc2ccccc2[C@@H]1c1ccc(F)cc1` [Compound 3147]: the pEC50 is 7.30. With `O=C1N[C@@]2(CCCNC2)N=C1N1CCc2ccccc2[C@@H]1c1ccc(F)cc1` [Compound 3148], the pEC50 was 7.07. Still for that read-out and setting: then `N[C@H]1C[C@@]2(COC(N3CCc4ccccc4[C@@H]3c3ccc(F)cc3)=N2)C1` [Compound 3162], with 6.19. Same read-out and setting: the value for `CN1CC[C@@]2(CN=C(N3CCc4ccccc4[C@@H]3c3ccc(F)cc3)O2)C1` [Compound 3167, (S)-2-((S)-1-(4-fluorophenyl)-3,4-dihydroisoquinolin-2(1H)-yl)-7-methyl-1-oxa-3,7-diazaspiro[4.4]non-2-ene] was 6.75; that for `CN1CC[C@]2(CN=C(N3CCc4ccccc4[C@@H]3c3ccc(F)cc3)O2)C1` [Compound 3168, (R)-2-((S)-1-(4-fluorophenyl)-3,4-dihydroisoquinolin-2(1H)-yl)-7-methyl-1-oxa-3,7-diazaspiro[4.4]non-2-ene] was 7.16. The same measure, in the same setting: then `Fc1ccc([C@H]2c3ccccc3CCN2C2=NC[C@]3(CCN(CC(F)(F)F)C3)O2)cc1` [Compound 3171, (R)-2-((S)-1-(4-fluorophenyl)-3,4-dihydroisoquinolin-2(1H)-yl)-7-(2,2,2-trifluoroethyl)-1-oxa-3,7-diazaspiro[4.4]non-2-ene], with 6.08; and `Fc1ccc([C@H]2c3ccccc3CCN2C2=NC[C@@]3(CCN(CC(F)(F)F)C3)O2)cc1` [Compound 3172, (S)-2-((S)-1-(4-fluorophenyl)-3,4-dihydroisoquinolin-2(1H)-yl)-7-(2,2,2-trifluoroethyl)-1-oxa-3,7-diazaspiro[4.4]non-2-ene], with 5.82; and `Fc1ccc([C@H]2c3ccccc3CCN2C2=NC[C@]3(CCN(CCC(F)(F)F)C3)O2)cc1` [Compound 3173, (R)-2-((S)-1-(4-fluorophenyl)-3,4-dihydroisoquinolin-2(1H)-yl)-7-(3,3,3-trifluoropropyl)-1-oxa-3,7-diazaspiro[4.4]non-2-ene], with 5.98. In the case of `Fc1ccc([C@H]2c3ccccc3CCN2C2=NC[C@@]3(CCN(CCC(F)(F)F)C3)O2)cc1` [Compound 3174, (S)-2-((S)-1-(4-fluorophenyl)-3,4-dihydroisoquinolin-2(1H)-yl)-7-(3,3,3-trifluoropropyl)-1-oxa-3,7-diazaspiro[4.4]non-2-ene], the negative-log EC50 (pEC50) is 5.86.

Consider `OCCN1CC[C@@]2(CN=C(N3CCc4ccccc4[C@@H]3c3ccc(F)cc3)O2)C1` [Compound 3175, 2-((S)-2-((S)-1-(4-fluorophenyl)-3,4-dihydroisoquinolin-2(1H)-yl)-1-oxa-3,7-diazaspiro[4.4]non-2-en-7-yl)ethan-1-ol], for which the pEC50 was 6.74. Take `OCCCN1CC[C@@]2(CN=C(N3CCc4ccccc4[C@@H]3c3ccc(F)cc3)O2)C1` [Compound 3176, 3-((S)-2-((S)-1-(4-fluorophenyl)-3,4-dihydroisoquinolin-2(1H)-yl)-1-oxa-3,7-diazaspiro[4.4]non-2-en-7-yl)propan-1-ol]: the pEC50 was 6.50.

Turning to `O[C@H]1CNC[C@]12CN=C(N1CCc3ccccc3[C@@H]1c1ccc(F)cc1)O2` [Compound 3177, (5S,9S)-2-((S)-1-(4-fluorophenyl)-3,4-dihydroisoquinolin-2(1H)-yl)-1-oxa-3,7-diazaspiro[4.4]non-2-en-9-ol], the pEC50 was 6.74. Compound `O[C@H]1CNC[C@@]12CN=C(N1CCc3ccccc3[C@@H]1c1ccc(F)cc1)O2` [Compound 3178, (5R,9S)-2-((S)-1-(4-fluorophenyl)-3,4-dihydroisoquinolin-2(1H)-yl)-1-oxa-3,7-diazaspiro[4.4]non-2-en-9-ol] had a pEC50 of 6.60.

Another test deals with mouse BV2 cells. The experiment in a line: secretion of progranulin from mouse BV2 cells.
Conditions: not given
It counts as cell-based. From the text:
The compounds disclosed herein (e.g., compounds of Formula I, II, IIa, IIb, III, and as shown in Tables A and B) can increase the amount of progranulin or granulin in a subject. In some cases, the compounds increase the amount of progranulin in a subject. In some cases, the compounds increase the amount of granulin in a subject. In some cases, the compounds affect cells to increase secretion of progranulin. Solifenacin is a drug currently used for urinary incontinence. […] As such, the compounds disclosed herein, (e.g., compounds of Formula I, II, IIa, IIb, III, and as shown in Tables A and B) can be useful in treating disorders associated with aberrant (e.g., reduced) progranulin secretion or activity.
Consider `O=C(O[C@H]1CN2CCC1CC2)N1CCc2ccccc2[C@@H]1c1ccccc1` [Solifenacin], for which the secretion of progranulin entry is “causes the secretion of progranulin”.

The values are drawn from patent US20220409593A1 (ARKUDA THERAPEUTICS, priority 2019, published 2022).
